Measured values: patent US20210386668A1, “Cyclodextrin for use in the treatment and prevention of late phase bronchoconstriction in allergen-induced asthma” (Universite de Liege, priority 2020, published 2021)

Columns and labels:
[1] = system: naïve CD4+ T cells (Balb/c); assay: In-vitro T-cell proliferation assay (BrdU incorporation, IL-2 secretion); type: cell-based, mice; conditions: HPBCD 5 mM, 48 h incubation
Experimental: The term “T-cell proliferation” means an increase in T-cells over a given period of time. In one embodiment, T-cell proliferation is measured by flow cytometry analysis of lung TH2 cells and total leukocyte counts. An exemplary embodiment of a way to measure T-cell proliferation is given in example 1 below. In one embodiment, naïve CD4+ T cells are exposed to HPBCD at a concentration of 5 mM and an anti-CD3 (3 mcg/ml) for 24 hours or 48 hours with HPBCD (5 mM) or with culture medium alone at 37° C. 5% CO2. During the last 2 hours of the proliferation test, Bromodeoxyuridine is added to the medium and incorporation is quantified by ELISA. IL-2 secretion is measured in the medium after 24 hours and 48 hours of anti-CD3 stimulation through ELISA. HPBCD was used at a concentration of 5 mM. […] Naïve CD4+ T cells were isolated from Balb/c mice spleen and purified with a MACS® negative selection kit. 1.5×10^5 cells were seeded in a 96 well plate and incubated with HPBCD 5 mM (in RPMI 10% FBS 1% pen/strep) or with medium alone for 3 h. Cells were then recovered and plated in an anti-CD3 (3 mcg/ml) coated well for 24 or 48 h with HPBCD (5 mM) or with culture medium alone at 37° C. 5% CO2. During the last 2 h of the proliferation test, BrdU was added to medium and incorporation was quantified by ELISA following manufacturer instructions. […]

healthy subjects = assay: Phase 1 clinical trial, single and multiple HPBCD inhalation; type: in vivo, human
Text: Clinical trial protocols have been approved by an independent ethical committee (CHU Liege—University of Liege) in accordance with GCPs, Declaration of Helsinki and European regulations (EudraCT). All participants gave written informed consent before any study-specific procedure. For the phase 1 clinical trial, 8 healthy subjects (4 women and 4 men) from 18 to 40 years were recruited and enrolled in the study at the University Hospital of Liege (Belgium). Patients were randomized and received first the placebo (NaCl 0.9%) or HPBCD at 2.5 mM and 8 days after, the opposite treatment. After 1 week, all patients received HPBCD at 15 mM. One month later, all patients received HPBCD at 15 mM during 5 consecutive days. Apyrogenic and sterile HPBCD powder was diluted with NaCl 0.9% before inhalation (8 ml) with an ultrasonic nebulizer (Devilbiss 2000). General symptoms, asthma scores (ACQ), dyspnea, chest Rx, clinical biology, ECG, vital signs, spirometry, NO, sputum (induced by NaCl 4.5%) were analyzed after treatment periods. The second clinical trial (phase 2a-proof of concept) was a double-blinded, cross-over, placebo-controlled study. 17 mild to moderate asthmatic patients were included in the study at two different sites (University Hospital of Liege and University Hospital Erasme) in Belgium. Characterization visits consisted of dyspnea symptoms recording, ECG, chest Rx, clinical biology, spirometry and vital signs analysis. PD20 (provocative dose that causes a 20% fall in FEV1 from the saline alone value) to inhaled allergen was determined. […] The PD20 of the allergen was calculated from a cumulative dose-response curve, as described previously, Cataldo et al., Matrix metalloproteinase-9, but not tissue inhibitor of matrix metalloproteinase-1, increases in the sputum from allergic asthmatic patients after allergen challenge, Chest. 2002; 122(5):1553-9. All […] received a cumulative concentration of Dermatophagoides pteronyssinus with a reactivity index of 6. After 14 days wash-out period, patients were randomly divided into two groups and received either HPBCD 15 mM or Placebo (NaCl 0.9%) by inhalation (ultrasonic nebulizer (Devilbiss 2000)) twice daily. At the end of this treatment period, lung function (FEV1) was analyzed after allergen (HDM) challenge under the supervision of experienced respiratory clinical physiologists. FEV1 was measured after allergen inhalation challenge at 5, 15, 30, 60, 120, 180, 240, 300 and 360 min. After 28 days wash-out period, patients received the opposite treatment for another 14 days and the FEV1 following allergen challenge was evaluated. All clinical parameters were examined after each treatment period. The endpoint of this proof of concept study was changes in FEV1 over 0-360 min post-allergen challenges. FEV1 in early phase (0-60 min) and late phase (180-360 min) were expressed as: area under the FEV1-versus-time curve (AUC), maximum percentage fall and average percentage fall (calculated by dividing the area under the curve of the percentage fall in FEV1 by the duration of the response period). One patient who received placebo had negative maximum FEV1 decrease and negative average percentage fall in FEV1. These negative values were truncated to 0. Patients had access to […] (salbutamol 100 μg) throughout the study as an «as needed» treatment.
Data are presented as mean±SEM unless specified. The differences between mean values were estimated using a two-tailed Mann-Whitney test (animal and in vitro experiments) unless specified. All animal experiments were repeated at least 2 times; n 6 in each experimental group. ANOVA Friedman test (single dose) and Wilcoxon signed rank test (multiple doses) were used to analyze results obtained during the phase 1 clinical trial. One-tailed Wilcoxon matched pairs test was used to evaluate intra-individual differences in the proof of concept clinical trial. A P value less than 0.05 was considered significant. […]

[2] = multiple dose HPBCD 15 mM, after 5 days inhalation
[3] = multiple dose HPBCD 15 mM, after 5 days inhalation, mean ± SD
[4] = single dose, HPBCD 2.5 mM, mean ± SD
[5] = single dose, HPBCD 15 mM, mean ± SD

Question: Which “cytotoxicity (BrdU incorporation)” value [1] does the source give for CC(O)COC[C@H]1O[C@@H]2O[C@H]3[C@H](O)[C@@H](O)[C@@H](O[C@H]4[C@H](O)[C@@H](O)[C@@H](O[C@H]5[C@H](O)[C@@H](O)[C@@H](O[C@H]6[C@H](O)[C@@H](O)[C@@H](O[C@H]7[C@H](O)[C@@H](O)[C@@H](O[C@H]8[C@H](O)[C@@H](O)[C@@H](O[C@H]1[C@H](O)[C@H]2O)O[C@@H]8COCC(C)O)O[C@@H]7COCC(C)O)O[C@@H]6COCC(C)O)O[C@@H]5COCC(C)O)O[C@@H]4COCC(C)O)O[C@@H]3COCC(C)O (stereo partly drawn) [HPBCD, 2-hydroxypropyl-beta-cyclodextrin] here?
Answer: not associated with cytotoxicity

Question: What about the “Eosinophils (sputum) 5 h after inhalation” value (shortened to “Eosinophils (sputum) 5 h”) (healthy subjects; [2]) of the same compound?
Answer: 0.00%

Question: And the QT (healthy subjects; [2])?
Answer: 393.50 ms

Question: And the QtTc (healthy subjects; [2])?
Answer: 393.30 ms

Question: And the FEV1 15 min after inhalation (healthy subjects; [3])?
Answer: 4.13 ± 0.87 L

Question: What about the FEV1 1 h after inhalation (healthy subjects; [3]) of the same compound?
Answer: 4.07 ± 0.82 L

Question: And the FEV1 3 h after inhalation (healthy subjects; [3])?
Answer: 4.11 ± 0.87 L

Question: What about the FEV1 5 h after inhalation (healthy subjects; [3]) of the same compound?
Answer: 4.1 ± 0.87 L

Question: And the “No measurements (ppb) 15 min after inhalation” value (“No measurements (ppb) 15 min” below) (healthy subjects; [3])?
Answer: 25.16 ± 9.76 ppb

Question: What about the “Eosinophils (sputum) 5 h” value (healthy subjects; [4]) of the same compound?
Answer: 0.00 ± 0.00%

Question: And the FEV1 15 min after inhalation (healthy subjects; [4])?
Answer: 4.08 ± 0.87 L

Question: What about the FEV1 1 h after inhalation (healthy subjects; [4]) of the same compound?
Answer: 4.11 ± 0.83 L

Question: And the FEV1 3 h after inhalation (healthy subjects; [4])?
Answer: 4.1 ± 0.82 L

Question: What about the FEV1 5 h after inhalation (healthy subjects; [4]) of the same compound?
Answer: 4.11 ± 0.87 L

Question: What about the “No measurements (ppb) 15 min” value (healthy subjects; single dose, HPBCD 2.5 mM, mean ± SD, n = 8) of the same compound?
Answer: 23.85 ± 7.56 ppb

Question: And the “Eosinophils (sputum) 5 h” value (healthy subjects; [5])?
Answer: 0.20 ± 0.49%

Question: What about the FEV1 15 min after inhalation (healthy subjects; [5]) of the same compound?
Answer: 4.01 ± 0.87 L

Question: What about the FEV1 1 h after inhalation (healthy subjects; [5]) of the same compound?
Answer: 4.04 ± 0.86 L

Question: What about the FEV1 3 h after inhalation (healthy subjects; [5]) of the same compound?
Answer: 4.07 ± 0.85 L

Question: What about the FEV1 5 h after inhalation (healthy subjects; [5]) of the same compound?
Answer: 4.08 ± 0.92 L

Question: What about the “No measurements (ppb) 15 min” value (healthy subjects; single dose, HPBCD 15 mM, mean ± SD, n = 8) of the same compound?
Answer: 28.48 ± 17.92 ppb
